Measured values from paper PMC10449634, “A general method for the development of multicolor biosensors with large dynamic ranges” (Nature Chemical Biology, 2023).
Blank lines part the entries; values can stand above or below the molecule they belong to.

Columns and labels:
[1] = molecular target: T1, ATeam 1.03 (Bacillus subtilis, UniProt P37812); test: FRET sensor titration; format: binding; settings: read-out: C50
T1 construct: gene atpC; epsilon subunit between mseCFP and Venus

[2] = molecular target: T2, ChemoG1 (eGFP-HT7) (Rhodococcus sp. (in: high G+C Gram-positive bacteria), UniProt P0A3G3, L47V/S58T/D78G/Y87F/L88M/C128F/A155T/E160K/A167V/A172T/K175M/C176G/K195N/A224E/N227D/E257K/T264A/H272N/Y273L/P291S/A292T); test: X-ray crystallography, […] Å; format: binding; settings: covalent; HaloTag labelling with chloroalkane; fluorophore at eGFP-HT7 interface
T2 construct: gene dhaA; eGFP fused directly to N terminus of HaloTag7; His10 removed with TEV protease; E. coli

[3] = molecular target: HaloTag7 (HT7) E143R E147R L271E labeled with SiR, as the C-terminal part of ChemoG5 (construct for fluorescence spectroscopy); test: FRET or BRET; intramolecular FRET of the purified eGFP–HT7 fusion (both partners on one chain), 200 nM protein labeled with 400 nM fluorophore–CA substrate, activity buffer (50 mM HEPES, 50 mM NaCl, pH 7.3) with 0.5 mg/ml BSA, 37 °C, plate reader

T1 sequence (P37812 whole entry): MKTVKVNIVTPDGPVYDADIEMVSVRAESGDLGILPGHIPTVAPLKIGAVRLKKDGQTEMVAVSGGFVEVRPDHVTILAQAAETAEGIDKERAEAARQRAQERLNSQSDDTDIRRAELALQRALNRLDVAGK

Molecule: Nc1ncnc2c1ncn2[C@@H]1O[C@H](COP(=O)(O)OP(=O)(O)OP(=O)(O)O)[C@@H](O)[C@H]1O [ATP]
EC50 [1]: 1800 µM

Molecule: CN(C)c1ccc2c(-c3cc(C(=O)NCCOCCOCCCCCCCl)ccc3C(=O)[O-])c3ccc(=[N+](C)C)cc-3oc2c1 [TMR-CA]
X-ray crystallography, 1.8 Å [2]: X-ray structure of ChemoG1 labeled with the fluorophore tetramethylrhodamine

FRET efficiency [3]: 95.8%
Molecule: eGFP A206K T225R, as the N-terminal part of ChemoG5 (construct for fluorescence spectroscopy) (from UniProt P42212 3-238) (domain or fragment)
